Source: US8529927B2, “Alpha-2 agonist polymeric drug delivery systems” (Allergan, Inc., priority 2004, dated 2013)
Like-named read-outs stand apart in the source and are kept apart here.

Columns and labels:
[1] = tested on: Branch retinal vein occlusion (BRVO); test: intravitreal implants in monkeys with laser-induced branch retinal vein occlusion (BRVO); format: in vivo, Cynomolgus monkeys
Procedure: Baseline measures were performed 3 days prior to implantation and 10 days following implantation with intraocular pressure (IOP), mfERG, laser Doppler scanning topography/flowmetry (HRT/HRF), optical coherence tomography (OCT), indocyanine green angiography (ICG) and fluorescein angiography (FA).
Wide angle contact lens fundus photography verified implant count and localization.
Branch retinal vein occlusion (BRVO) was achieved by injecting 1 ml of 20 mg/kg Rose Bengal intravenously followed by thermal irradiation using Omni Coherent Diode laser at 532 nm, 600 mW, 50 um spot size, 0.01 sec pulse mode with a 1.6× inversion contact lens. Laser pulses were delivered until the vein segment was closed. […] Occlusion was verified post-laser by fundus photography.
Delay in fluorescein filling of the occluded vein was quantified using Metamorph 6.0 software. Intensity measurements were made with pre-defined regions of interest for early and late phases of fluorescein angiography to quantify delay in filling and the observed delay in fluorescein clearance.
Intraocular pressure (IOP) was recorded (OD and OS) in each group in triplicate post implantation and prior to all follow-up electrophysiology and retinal imaging procedures.
Multi-focal ERG was performed using a VERIS 5.0 system.

in vivo = test: in vivo
Procedure: A separate group of rabbits were studied to obtain pharmacokinetic data. In these rabbits the implants were inserted using a surgical intravitreal implantation procedure performed as follows: a conjunctival incision was made, and a sclerotomy was performed with a 20-gauge MVR blade. The sclerotomy was 3 mm from the limbus and lateral to the dorsal rectus muscle between the 10 and 12 o'clock positions on the right eye, and between the 12 and 2 o'clock positions on the left eye. Using a sterile forceps, the test article was inserted through the sclerotomy. The sclerotomy was closed with 9-0 Prolene suture material. A sterile ocular lubricant was applied to the eye following the implantation procedure. Blood was collected from rabbits prior to euthanasia/necropsy on Days 8, 31, 58, 91, 136, or 184. The aqueous humor, vitreous humor, lens, retina and plasma samples from the rabbits were analyzed by using liquid chromatography-mass spectrometry/mass spectrometry (LC-MS/MS) methods.

[2] = cited from earlier work
[3] = albino, rabbit, lens, other: intravitreal implantation, 200 μg
[4] = albino, rabbit, plasma, other: intravitreal implantation, 200 μg
[5] = albino, rabbit, retina, other: intravitreal implantation, 200 μg
[6] = albino, rabbit, vitreous humor, other: intravitreal implantation, 200 μg

Iris-ciliary body brimonidine concentration, estimated mean value in parentheses (in vivo; Day 8, Formulation #17 implant, estimate including ALQ samples): 3010 ng/g
Iris-ciliary body brimonidine concentration (in vivo; Day 8 after intravitreal 200 μg brimonidine implant (Formulation #17), N = 2, two samples ALQ): 942 ng/g
period of detectable release from the implant into the vitreous (in vivo; Formulation #17 implant): at least a ninety day period
time brimonidine was present in the retina (in vivo; Formulation #17 implant): at least 84 days
concentration at 91 day (in vivo; albino, rabbit, iris-ciliary body, other: intravitreal implantation, 200 μg): 42.9 ± 18.7 ng/g
concentration at 58 day (in vivo; [3]): 17.9 ± 12.5 ng/g
concentration at 136 day (in vivo; [3]): 16.2 ± 12.3 ng/g
concentration at 184 day (in vivo; [3]): 1.18 ± 0.71 ng/g
concentration at 8 day (in vivo; [4]): 0.092 ng/mL
concentration at 31 day (in vivo; [4]): 0.0575 ng/mL
concentration at 58 day (in vivo; [4]): 0.255 ng/mL
concentration at 58 day (in vivo; [5]): 122 ± 57.3 ng/g
concentration at 91 day (in vivo; [5]): 488 ± 471 ng/g
concentration at 184 day (in vivo; [5]): 59.8 ± 35 ng/g
concentration at 31 day (in vivo; [6]): 9.35 ± 6.25 ng/mL
concentration at 58 day (in vivo; [6]): 5.6 ± 3.24 ng/mL
detectability in the aqueous humor (in vivo; any time point (Days 8-184), Formulation #17 implant): not detectable at any time point
SMILES: Brc1c(NC2=NCCN2)ccc2nccnc12 [brimonidine, 5-bromo-6-(2-imidazolidinylideneamino) quinoxaline]
blood flow in the fovea (Laser Doppler Flowmetry) ([1]; following BRVO, FIG. 14): unchanged
amount of laser burns needed to close the veins ([1]; n=2): 157±79
route of clearance after release from the intravitreal implant (in vivo; Formulation #17 implant): posterior clearance as opposed to an anterior clearance
solubility in water ([2]; listed as brimonidine free base): not water soluble
solubility in water ([2]; listed as brimonidine freebase): negligible
